Experimental data from US9249125B2, “Pyrazole derivatives as p38 MAP inhibitors” (RESPIVERT LIMITED, priority 2012, dated 2016).

Tests used:
[1] = biological target: Syk (Homo sapiens (Human), UniProt P43405); assay: Syk enzyme inhibition (FRET, Z-LYTE); format: biochemical
How it was run: (§1)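 Z-LYTE FRET kinase assay: enzyme (3000 or 2000 ng/mL stock, respectively) preincubated 2 h at RT with compound (4–0.004 μg/mL stocks), then FRET peptide plus ATP (800 μM stock for c-Src, 60 μM for Syk) added for 1 h. Protease development 1 h; phosphorylation from coumarin/fluorescein emission ratio.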

[2] = test system: d-U937 cells; assay: Cell viability: MTT assay; format: cell-based, human; details: 1 μg/mL
How it was run: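 MTT read-out (1 h, absorbance 550 nm) on d-U937 cells after pre-incubation with 1 or 10 μg/mL compound under two regimes: 4 h, 5% FCS, or 24 h, 10% FCS RPMI1640. Values are percent loss of viability relative to vehicle (0.5% DMSO), so increases are reported as negative.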

[3] = test system: LPS-induced TNFα release in d-U937 cells; assay: LPS-induced TNFα release in d-U937 cells; format: cell-based; details: Homo sapiens, dU937, relative to 10 μg/mL BIRB796, read-out: LPS Induced Release of Cytokine in d-937 Cells TNFα REC50
How it was run: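 Read-out: TNFα and IL-8 released into supernatant, sandwich ELISA, expressed as inhibition versus vehicle at each dose and fitted to give REC50. Cells were PMA-differentiated U937 (100 ng/mL, 48–72 hr), compound-exposed 2 hr before a 4 hr LPS stimulus (0.1 μg/mL).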

[4] = biological target: cSrc (Homo sapiens (Human), UniProt P12931); assay: c-Src enzyme inhibition (FRET, Z-LYTE); format: biochemical
How it was run: as §1

[5] = biological target: p38 MAPKα (Homo sapiens (Human), UniProt Q16539); assay: p38 MAPKα enzyme inhibition (FRET, Z-LYTE); format: biochemical
[6] = test system: Poly I:C-induced ICAM-1 expression in BEAS2B cells; assay: Poly I:C-induced ICAM-1 expression in BEAS2B cells; format: cell-based; details: Homo sapiens, BEAS-2B, read-out: Poly IC induced ICAM1 in BEAS2B IC50
How it was run: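 Cell-based ELISA read at 450 nm minus 655 nm, divided by crystal violet OD595 to normalize for cell number, gave ICAM-1 levels. Readout was taken 18 hr after poly I:C (1 μg/mL, Oligofectamine) transfection of human bronchial BEAS2B cells pretreated 2 hr with test compound.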

p38 MAPKα, sequence (Q16539 whole entry): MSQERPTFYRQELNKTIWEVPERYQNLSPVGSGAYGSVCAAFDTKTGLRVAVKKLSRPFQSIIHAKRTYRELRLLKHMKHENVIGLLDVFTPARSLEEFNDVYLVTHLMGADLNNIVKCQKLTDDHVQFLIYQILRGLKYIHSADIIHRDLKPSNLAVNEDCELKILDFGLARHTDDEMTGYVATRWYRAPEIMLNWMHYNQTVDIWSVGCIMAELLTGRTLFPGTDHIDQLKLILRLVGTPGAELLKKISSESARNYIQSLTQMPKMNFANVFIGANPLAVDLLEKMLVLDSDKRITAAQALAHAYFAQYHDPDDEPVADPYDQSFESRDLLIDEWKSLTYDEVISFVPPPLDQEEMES
cSrc, sequence (P12931 whole entry, looked up): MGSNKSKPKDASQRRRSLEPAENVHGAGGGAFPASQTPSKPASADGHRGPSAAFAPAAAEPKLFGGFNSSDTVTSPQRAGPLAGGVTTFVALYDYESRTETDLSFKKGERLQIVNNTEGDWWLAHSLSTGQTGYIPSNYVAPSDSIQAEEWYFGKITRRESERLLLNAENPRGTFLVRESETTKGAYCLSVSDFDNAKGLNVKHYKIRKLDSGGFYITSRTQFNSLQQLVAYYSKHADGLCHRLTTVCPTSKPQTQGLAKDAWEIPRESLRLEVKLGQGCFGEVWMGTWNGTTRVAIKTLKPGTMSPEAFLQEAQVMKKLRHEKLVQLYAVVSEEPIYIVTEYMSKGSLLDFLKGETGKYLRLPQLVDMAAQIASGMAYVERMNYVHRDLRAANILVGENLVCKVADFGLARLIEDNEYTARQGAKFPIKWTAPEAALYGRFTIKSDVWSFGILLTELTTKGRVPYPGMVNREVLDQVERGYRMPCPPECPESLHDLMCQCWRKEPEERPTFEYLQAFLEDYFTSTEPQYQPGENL

| SMILES | IC50 [1] [nM] | MTT Assay Cell viability at time point in d-U937 cells 4 h [2] | MTT Assay Cell viability at time point in d-U937 cells 24 h [2] | EC50 [3] [nM] | IC50 [4] [nM] | IC50 [5] [nM] | IC50 [6] [nM] |
| --- | --- | --- | --- | --- | --- | --- | --- |
| Cc1ccc(-n2nc(C(C)(C)C)cc2NC(=O)Nc2ccc(Oc3ccnc(Nc4ccc5c(c4)ncn5C)n3)c3ccccc23)cc1 [Example 4, 1-(3-(tert-Butyl)-1-(p-tolyl)-1H-pyrazol-5-yl)-3-(4-((2-((1-methyl-1H-benzo[d]imidazol-5-yl)amino)pyrimidin-4-yl)oxy)naphthalen-1-yl)urea] | 14 | −ve (−ve and +ve indicate that the value is below and above respectively, the no significant effect threshold, defined as 30% inhibition at 1 μg/mL at the time point indicated.) | −ve (−ve and +ve indicate that the value is below and above respectively, the no significant effect threshold, defined as 30% inhibition at 1 μg/mL at the time point indicated.) | 2.4 | 4 | 19 | 2.4 |
| COc1ccc(-n2nc(C(C)(C)C)cc2NC(=O)Nc2ccc(Oc3ccnc(Nc4ccc5[nH]ncc5c4)n3)c3ccccc23)cc1 [Example 40, 1-(4-((2-((1H-indazol-5-yl)amino)pyrimidin-4-yl)oxy)naphthalen-1-yl)-3-(3-(tert-butyl)-1-(4-methoxyphenyl)-1H-pyrazol-5-yl)urea] | 24 | −ve (−ve and +ve indicate that the value is below and above respectively, the no significant effect threshold, defined as 30% inhibition at 1 μg/mL at the time point indicated.) | −ve (−ve and +ve indicate that the value is below and above respectively, the no significant effect threshold, defined as 30% inhibition at 1 μg/mL at the time point indicated.) | 1.5 | 8 | 68 | 2.4 |
| Cc1cc(Nc2nccc(Oc3ccc(NC(=O)Nc4cc(C(C)(C)C)nn4-c4cccc(OCCN5CCOCC5)c4)c4ccccc34)n2)cc2cn[nH]c12 [Example 56, 1-(3-(tert-butyl)-1-(3-(2-morpholinoethoxy)phenyl)-1H-pyrazol-5-yl)-3-(4-((2-((7-methyl-1H-indazol-5-yl)amino)pyrimidin-4-yl)oxy)naphthalen-1-yl)urea] | 3 | −ve (−ve and +ve indicate that the value is below and above respectively, the no significant effect threshold, defined as 30% inhibition at 1 μg/mL at the time point indicated.) | +ve (−ve and +ve indicate that the value is below and above respectively, the no significant effect threshold, defined as 30% inhibition at 1 μg/mL at the time point indicated.) | 4.9 | 2 | 46 | 11.9 |
| Cc1ccc(-n2nc(C(C)(C)C)cc2NC(=O)Nc2ccc(Oc3cc(Nc4ccc5[nH]ncc5c4)ncn3)c3ccccc23)cc1 [Example 23, 1-(4-((6-((1H-indazol-5-yl)amino)pyrimidin-4-yl)oxy)naphthalen-1-yl)-3-(3-(tert-butyl)-1-(p-tolyl)-1H-pyrazol-5-yl)urea] | 57 | −ve (−ve and +ve indicate that the value is below and above respectively, the no significant effect threshold, defined as 30% inhibition at 1 μg/mL at the time point indicated.) | −ve (−ve and +ve indicate that the value is below and above respectively, the no significant effect threshold, defined as 30% inhibition at 1 μg/mL at the time point indicated.) | 3.3 | 16 | 30 | 4.3 |
